Test results: PubChem BioAssay (NCI)
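Results reflect a 48-hour exposure of cells in 96-well plates to compound at five concentrations. At the TGI there is no net growth.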

Assays:
Assay in all cases: DTP human tumour cell line panel, 48 h
[1] = test system: MOLT-4 leukemia
[2] = test system: K-562 leukemia
[3] = test system: SK-MEL-2 melanoma
[4] = test system: SF-295 CNS
[5] = test system: OVCAR-8 ovarian
[6] = test system: UO-31 renal
[7] = test system: HOP-92 NSCLC
[8] = test system: HS 578T breast
[9] = test system: SF-539 CNS
[10] = test system: ACHN renal
[11] = test system: SR leukemia
[12] = test system: TK-10 renal
[13] = test system: EKVX NSCLC
[14] = test system: T-47D breast
[15] = test system: IGROV1 ovarian
[16] = test system: NCI/ADR-RES ovarian
[17] = test system: BT-549 breast
[18] = test system: M14 melanoma
[19] = test system: UACC-257 melanoma
[20] = test system: HT29 colon
[21] = test system: UACC-62 melanoma
[22] = test system: COLO 205 colon
[23] = test system: SK-MEL-28 melanoma
[24] = test system: SK-OV-3 ovarian
[25] = test system: MCF7 breast
[26] = test system: MDA-MB-435
[27] = test system: U251 CNS
[28] = test system: HCC-2998 colon
[29] = test system: RXF 393 renal
[30] = test system: HL-60(TB) leukemia
[31] = test system: SNB-19 CNS
[32] = test system: NCI-H460 lung
[33] = test system: CCRF-CEM leukemia
[34] = test system: SN12C renal
[35] = test system: 786-0 renal
[36] = test system: KM12 colon
[37] = test system: HOP-62 NSCLC
[38] = test system: MDA-N
[39] = test system: A498 renal
[40] = test system: A549 NSCLC
[41] = test system: SK-MEL-5 melanoma
[42] = test system: OVCAR-5 ovarian
[43] = test system: SF-268 CNS
[44] = test system: HCT-116 colon
[45] = test system: OVCAR-4 ovarian
[46] = test system: OVCAR-3 ovarian
[47] = test system: LOX IMVI melanoma
[48] = test system: SNB-75 CNS
[49] = test system: PC-3 prostate
[50] = test system: NCI-H23 lung
[51] = test system: HCT-15 colon
[52] = test system: NCI-H226 lung
[53] = test system: DU-145 prostate
[54] = test system: SW-620 colon
[55] = test system: RPMI-8226 leukemia
[56] = test system: NCI-H522 lung
[57] = test system: MDA-MB-231 breast
[58] = test system: CAKI-1 renal

Measured: TGI

Cn1c(-c2ccccc2)cc(-c2ccc3c(c2)OCO3)c1-c1cccs1
not listed: [56] | [57] | [58]
> 100 µM: all other assays above

NC(CCCCCP(=O)(O)O)C(=O)O (stereo not drawn)
not listed: [25] | [35] | [37] | [39] | [52]
> 100 µM: all other assays above
